Assay results published in publication PMC9966435, “Synthesis and Biological Evaluation of 3-Amidoquinuclidine Quaternary Ammonium Compounds as New Soft Antibacterial Agents” (Pharmaceuticals, 2023).
≈ marks a conversion by molar mass, not a printed value. Where two headings read alike, the source gives them in different places.

How the values were obtained:
Format in all cases: cell-based
[1] = test system: Listeria monocytogenes ATCC7644; assay: Broth microdilution MIC in Mueller Hinton broth; details: Listeria monocytogenes
[2] = test system: Staphylococcus aureus ATCC33591; assay: Broth microdilution MIC in Mueller Hinton broth; details: Staphylococcus aureus
[3] = test system: Pseudomonas aeruginosa ATTC27853; assay: Broth microdilution MIC in Mueller Hinton broth; details: Pseudomonas aeruginosa
[4] = test system: Salmonella enterica food isolate; assay: microbe, parasite or virus in culture; details: Salmonella enterica, read-out: Minimum Inhibitory Concentration (MIC) Salmonella enterica food isolate
[5] = test system: Escherichia coli ATTC25922; assay: Broth microdilution MIC in Mueller Hinton broth; details: Escherichia coli
[6] = test system: Staphylococcus aureus ATCC25923; assay: Broth microdilution MIC in Mueller Hinton broth
[7] = test system: Bacillus cereus ATCC14579; assay: Broth microdilution MIC in Mueller Hinton broth; details: Bacillus cereus
[8] = test system: Staphylococcus aureus Clinical/MRSA; assay: Broth microdilution MIC in Mueller Hinton broth; details: Staphylococcus aureus, MRSA, read-out: Minimum Inhibitory Concentration (MIC) Staphylococcus aureus Clinical/MRSA
[9] = test system: Enterococcus faecalis ATCC29212; assay: Broth microdilution MIC in Mueller Hinton broth; details: Enterococcus faecalis
[10] = test system: Staphylococcus aureus ATCC 25923; assay: MIC in Dulbecco's Modified Eagle Medium (DMEM); details: ATCC25923, Dulbecco's Modified Eagle Medium, S. aureus ATCC 25923, read-out: MIC DMEM
Experimental: The overnight culture of Staphylococcus aureus ATCC 25923 was diluted in fresh Mueller Hinton broth (MHB) and placed in an orbital shaker incubator (Gallenkamp, Cambridge, UK) at 37 °C and 220 rpm. Once the culture reached the exponential growth phase (OD600 = 0.3–0.5), cells were centrifuged (Heraeus, Biofuge primo R, Hanau, Germany) at room temperature at a speed of 4000× g. The cell pellet was resuspended in tempered Dulbecco’s Modified Eagle Medium (DMEM) to a final concentration of 5 × 10^5 CFU/mL. Then, 50 µL of as-prepared cells were added to a 96-well plate containing twofold serial dilutions of tested compounds in DMEM medium in the range of concentrations from 125 µM to 0.12 µM. The minimum inhibitory concentration (MIC) was visually assessed the next day. The MIC was determined as the lowest concentration of the substance at which no apparent bacterial growth was seen.

[11] = test system: Staphylococcus aureus ATCC 25923; assay: MIC in cation-adjusted Mueller Hinton broth (CA-MHB); details: ATCC25923, cation-adjusted MHB, S. aureus ATCC 25923, read-out: MIC CA-MHB
Experimental: A representative bacterial strain, Staphylococcus aureus ATCC 25923, was grown overnight in Mueller Hinton broth (MHB). The following day, the culture was diluted in tempered MHB and allowed to grow at 37 °C with constant shaking of 220 rpm. Once the bacterial culture reached the exponential growth phase (OD600 = 0.3–0.5), it was diluted in the cation-adjusted Mueller Hinton broth (CA-MHB) containing MgCl2 (10 mM) to the final cell count of 5 × 10^5 CFU/mL. The previously prepared 96-well plate contained twofold serial dilutions of the compounds to be tested, dissolved in CA-MHB, in the concentrations range of 125 µM to 0.12 µM. Then, 50 µL of the bacterial cells diluted in CA-MHB was pipetted in each well of the plate and incubated overnight at 37 °C with constant shaking at 220 rpm. The next day, the minimum inhibitory concentration (MIC) was determined as the lowest concentration of the compound that prevented supposed bacterial growth in the wells. Visually determined results of antibacterial activity were confirmed by the addition of 20 µL 2-(4-iodophenyl)-3-(4-nitrophenyl)-5-phenyltetrazolium chloride (INT) reagent (6 mg/mL). The MIC value of a drug in CA-MHB containing NaCl (85 mM) was determined using the same experimental technique.

[12] = ATCC7644, read-out: Minimum Inhibitory Concentration (MIC) Listeria monocytogenes ATCC7644
[13] = ATCC33591, read-out: Minimum Inhibitory Concentration (MIC) Staphylococcus aureus ATCC33591
[14] = ATTC27853, read-out: Minimum Inhibitory Concentration (MIC) Pseudomonas aeruginosa ATTC27853
[15] = ATTC25922, read-out: Minimum Inhibitory Concentration (MIC) Escherichia coli ATTC25922
[16] = Staphylococcus aureus, ATCC25923, read-out: Minimum Inhibitory Concentration (MIC) Staphylococcus aureus ATCC25923
[17] = ATCC14579, read-out: Minimum Inhibitory Concentration (MIC) Bacillus cereus ATCC14579
[18] = ATCC29212, read-out: Minimum Inhibitory Concentration (MIC) Enterococcus faecalis ATCC29212
[19] = ATCC7644, MHB, read-out: Minimum Inhibitory Concentration (MIC) Listeria monocytogenes ATCC7644
[20] = ATCC33591, MHB, read-out: Minimum Inhibitory Concentration (MIC) Staphylococcus aureus ATCC33591
[21] = ATTC27853, MHB, read-out: Minimum Inhibitory Concentration (MIC) Pseudomonas aeruginosa ATTC27853
[22] = ATTC25922, MHB, read-out: Minimum Inhibitory Concentration (MIC) Escherichia coli ATTC25922
[23] = Staphylococcus aureus, ATCC25923, MHB, read-out: Minimum Inhibitory Concentration (MIC) Staphylococcus aureus ATCC25923
[24] = ATCC14579, MHB, read-out: Minimum Inhibitory Concentration (MIC) Bacillus cereus ATCC14579
[25] = ATCC29212, MHB, read-out: Minimum Inhibitory Concentration (MIC) Enterococcus faecalis ATCC29212
[26] = MHB, read-out: Minimum Inhibitory Concentration (MIC) Staphylococcus aureus ATCC25923

SMILES | MIC [1, 12] [µM] | MIC [2, 13] [µM] | MIC [3, 14] [µM] | MIC [4] [µM] | MIC [5, 15] [µM] | MIC [6, 16] [µM] | MIC [7, 17] [µM] | MIC [8] [µM] | MIC [9, 18] [µM] | MIC [1, 19] [µM] | MIC [2, 20] [µM] | MIC [3, 21] [µM] | MIC [5, 22] [µM] | MIC [6, 23] [µM] | MIC [7, 24] [µM] | MIC [9, 25] [µM] | MIC [10] [µM] | MIC [6, 26] [µM] | MIC [11] [µM]
CC(=O)NC1CN2CCC1CC2 (racemic) [QAc, (±)3-acetamidoquinuclidine] | > 100 | > 100 | > 100 | > 100 | > 100 | > 100 | > 100 | > 100 | > 100 | – | – | – | – | – | – | – | – | – | –
O=C(NC1CN2CCC1CC2)c1ccccc1 (racemic) [QBn, (±)3-benzamidoquinuclidine] | – | – | – | > 100 | – | – | – | > 100 | – | > 100 | > 100 | > 100 | > 100 | > 100 | > 100 | > 100 | – | – | –
CCCCCCCCCCCC[N+]12CCC(CC1)C(NC(C)=O)C2 (stereo not drawn) [QAc-C12] | > 125 | > 125 | > 125 | > 125 | > 125 | > 125 | > 125 | > 125 | > 125 | – | – | – | – | – | – | – | – | – | –
CCCCCCCCCCCCCC[N+]12CCC(CC1)C(NC(C)=O)C2 (stereo not drawn) [QAc-C14] | – | > 125 | > 125 | > 125 | > 125 | > 125 | > 125 | > 125 | – | 63 | – | – | – | – | – | 63 | – | – | –
CCCCCCCCCCCCCCCC[N+]12CCC(CC1)C(NC(C)=O)C2 (stereo not drawn) [QAc-C16] | – | > 125 | > 125 | > 125 | > 125 | > 125 | > 125 | > 125 | – | 8 | – | – | – | – | – | 31 | – | – | –
CCCCCCCCCCCC[N+]12CCC(CC1)C(NC(=O)c1ccccc1)C2 (stereo not drawn) [QBn-C12] | – | – | – | 63 | – | – | – | 63 | – | 31 | 63 | > 125 | 63 | 63 | 63 | 31 | 3 | 63 | 25
CCCCCCCCCCCCCC[N+]12CCC(CC1)C(NC(=O)c1ccccc1)C2 (stereo not drawn) [QBn-C14] | – | – | – | 31 | – | – | – | 31 | – | 4 | 31 | 63 | 31 | 31 | 63 | 8 | 3 | 31 | 25
CCCCCCCCCCCCCCCC[N+]12CCC(CC1)C(NC(=O)c1ccccc1)C2 (stereo not drawn) [QBn-C16] | – | – | – | 63 | – | – | – | 31 | – | 4 | 31 | > 125 | 31 | 63 | 63 | 4 | 3 | 63 | 6
C=CC[N+]12CCC(CC1)C(NC(=O)CCCCCCCCCCC)C2 (stereo not drawn) [QC12-Ally] | > 125 | > 125 | > 125 | > 125 | > 125 | > 125 | > 125 | > 125 | > 125 | – | – | – | – | – | – | – | – | – | –
CCCCCCCCCCCC(=O)NC1C[N+]2(C)CCC1CC2 (stereo not drawn) [QC12-Me] | – | > 125 | > 125 | > 125 | – | – | – | 100 | – | 100 | – | – | 100 | 100 | 100 | 100 | – | – | –
CCCCCCCCCCCC(=O)NC1CN2CCC1CC2 (stereo not drawn) [QC12] | – | – | – | > 100 | – | – | – | > 100 | – | 100 (≈ 30.9 µg/mL) | 100 (≈ 30.9 µg/mL) | > 100 | > 100 | > 100 | > 100 | > 100 | – | – | –
CCCCCCCCCCCCCC(=O)NC1CN2CCC1CC2 (stereo not drawn) [QC14] | – | – | – | 100 (≈ 33.7 µg/mL) | – | – | – | 50 (≈ 16.8 µg/mL) | – | 25 (≈ 8.41 µg/mL) | 50 (≈ 16.8 µg/mL) | > 100 | 50 (≈ 16.8 µg/mL) | 60 (≈ 20.2 µg/mL) | 25 (≈ 8.41 µg/mL) | 17 (≈ 5.72 µg/mL) | – | – | –
CCCCCCCCCCCCCCCC(=O)NC1CN2CCC1CC2 (stereo not drawn) [QC16] | – | – | – | > 100 | – | – | – | 250 (≈ 91.2 µg/mL) | – | 125 (≈ 45.6 µg/mL) | 100 (≈ 36.5 µg/mL) | > 100 | > 100 | 62.5 (≈ 22.8 µg/mL) | > 100 | > 100 | – | – | –
NC1CN2CCC1CC2 (stereo not drawn) [QNH2, 3-aminoquinuclidine] | > 100 | > 100 | > 100 | > 100 | > 100 | > 100 | > 100 | > 100 | > 100 | – | – | – | – | – | – | – | – | – | –
